Source: the AptaBench aptamer set (doi:10.1093/nar/gkaf219)

Columns and labels:
Details in all cases: 10 mM Tris-HCl, pH 7.4
[1] = test system: DNA aptamer or structured DNA GGGACGACCCGTAGGGGTACACGCTCTATAGGGGCTGGGTCGTCCC
[2] = test system: DNA aptamer or structured DNA CTTACGACCAGGCCTACGGAAGCAGCGTCAGCGGGGGGGTCGTAAG
[3] = test system: DNA aptamer or structured DNA GGGACGACTACGTAGCCCTGTCTCAGCGAGTTCGCGGAGTCGTCCC
[4] = test system: DNA aptamer or structured DNA GGGACGACGGGGGGAGTAATGTTTGTGTGGGGGAGCCGGTCGTCCC
[5] = test system: DNA aptamer or structured DNA GGGACGACTGGCGCCGGATTCCCTAAGGTACACGGACTGTCGTCCC
[6] = test system: DNA aptamer or structured DNA GGGACGACGGGGATTCGCGGATTCATGGAAAAGGGCTCGTCTGTCGTCCC
[7] = test system: DNA aptamer or structured DNA GGGACGACTAGCCGTGGCGTTGTTCGAGTGCAGCGAGTAGTCGTCCC
[8] = test system: DNA aptamer or structured DNA GGGACGACAAGTCAGGCCTGTCTCAGCGAGTTCGACATGTCGTCCC
[9] = test system: DNA aptamer or structured DNA GGGACGACGAGGGCACGTCTGTGTGCAGGGTTTCGCGCGTCGTCCC
[10] = test system: DNA aptamer or structured DNA GGGACGACTAGCGCATGCGTTGTTCGAGGATACGAGTAGTCGTCCC
[11] = test system: DNA aptamer or structured DNA GGGACGACTAATGGGAGCATTGGTCCACGCAGTGTGCAGTCGTCCC
[12] = test system: DNA aptamer or structured DNA GGGACGACGGGGATTCGCGGATTCGGAGAAAAGGGCTCGTACGTCGTCCC
[13] = test system: DNA aptamer or structured DNA GGGACGACTAGTGCCTTCGCGTTGTTCAGGAATCCGGTTCTGTCGTCCC
[14] = test system: DNA aptamer or structured DNA GGGACGACTAGCCCGGCGTTGTTCGAGTGCAGCGAGTAGTCGTCCC
[15] = test system: DNA aptamer or structured DNA GGGACGACTGCTTGGGTAGGTCGGGTTTGGGTGCGGCGGTCGTCCC
[16] = test system: DNA aptamer or structured DNA GGGACGACAAAATGGCAGCATTGGTGACGGAGTTGCTTGTCGTCCC
[17] = test system: DNA aptamer or structured DNA GGGACGACTACAGGTCGTGCGTTGCTCGAGTTGGTGAGTGTGTCGTCCC
[18] = test system: DNA aptamer or structured DNA CTTACGACTTACTTTTGGGTTGTCTGGGTGGGAGGTATGTCGTAAG
[19] = test system: DNA aptamer or structured DNA TTCAAATCTTGCGAATTGGACTCAGAATGTGGGTTTGCCAGTCTAGATTTGAA
[20] = test system: DNA aptamer or structured DNA GGGACGACTAGTGCCTTCGCGCTGTGCGGGAATCCGGTTCTGTCGTCCC
[21] = test system: DNA aptamer or structured DNA CTTACGACGACCTATTGGGGGGTAGTTATAGTTGGGTGAGTCGTAAG
[22] = test system: DNA aptamer or structured DNA TTCAAATCTAGCGCAGGTAGGGGTGTAGGCGTGGGGGTAAGTCTAGATTTGAA
[23] = test system: DNA aptamer or structured DNA GGGACGACGGAGGTTTAGGGTTTAGGTAGTGGGTTGAAGTCGTCCC
[24] = test system: DNA aptamer or structured DNA GGGACGACGCACTATGGCTAGGGTTGGTACGGTCGTGAACCGCGGGGTGTCGTCCC
[25] = test system: DNA aptamer or structured DNA CTTACGACCATGGGTGTTTGCACTAAGTCCGGTTCTTGGTCGTAAG
[26] = test system: DNA aptamer or structured DNA GGGACGACGGGGGGCTTTAGGGTGTAGGAGTGGGGTGAGTCGTCCC
[27] = test system: DNA aptamer or structured DNA GGGACGACCGGCTGTCTGGATGCATTGCGCCGGGAACTCGGACGGATGGTCGTCCC
[28] = test system: DNA aptamer or structured DNA GGGACGACGGTTGGCATTGGGTCGGGTGTGGGTGCGGCGTCGTCCC
[29] = test system: DNA aptamer or structured DNA CTTACGACGACCTATTGGGGGTAGTTATAGTTGGGTGAGTCGTAAG
[30] = test system: DNA aptamer or structured DNA TTCAAATCTGCGGCGACTAATTCTTAGTGGTGGTTGCAATGCGCTGGGATGAGTCTAGATTTGAA
[31] = test system: DNA aptamer or structured DNA GGGACGACGGTACCCGCCGGTGCAGGATCTGGGGTGGTGTCGTCCC
[32] = test system: DNA aptamer or structured DNA CTTACGACGGGTTCAGAGGGTCAACGGTGGTGTTGTCGTCGTAAG
[33] = test system: DNA aptamer or structured DNA TTCAAATCTGGTGCCCTTTCGCAGTCGGTTGGTAATGAGACCACTTTAGAGTCTAGATTTGAA
[34] = test system: DNA aptamer or structured DNA GGGACGACGGCACGAGGTTAATCGTTGGTTGCACTGCGCTGGGAGGCAGTCGTCCC
[35] = test system: DNA aptamer or structured DNA GGGACGACGGCACGAGGTTATTCGTTGGTTGCACTGCGCTGGGAGGAAGTCGTCCC
Throughout, for binding call: call rule not given here.

SMILES	binding call [1]	binding call [3]	binding call [4]	binding call [7]	binding call [8]	binding call [11]	binding call [13]	binding call [14]	binding call [16]	binding call [18]	binding call [21]	binding call [22]	binding call [23]	binding call [26]	binding call [29]	also measured
OC[C@@H](O)[C@@H](O)[C@H](O)[C@H](O)CO	no binding	no binding	no binding													binding call [2]: no binding; binding call [5]: no binding
O=C1CC[C@@]2(O)[C@H]3Cc4ccc(O)c5c4[C@@]2(CCN3CC2CC2)[C@H]1O5	no binding	no binding		no binding	no binding	no binding	no binding	no binding	no binding							binding call [6]: no binding; binding call [9]: binds; binding call [10]: no binding; binding call [12]: no binding; binding call [5]: no binding; binding call [15]: no binding
C=CCN1CC[C@]23c4c5ccc(O)c4O[C@H]2C(=O)CC[C@@]3(O)[C@H]1C5	binds	no binding	no binding	no binding			no binding	no binding	no binding							binding call [6]: no binding; binding call [9]: no binding; binding call [12]: no binding; binding call [5]: no binding
CCN(CC)CC(=O)Nc1c(C)cccc1C						no binding	no binding	no binding	no binding	no binding	no binding	no binding	no binding			binding call [17]: no binding; binding call [19]: no binding; binding call [20]: no binding; binding call [10]: no binding; binding call [24]: no binding; binding call [25]: no binding
CCC(=O)C(CC(C)N(C)C)(c1ccccc1)c1ccccc1 (stereo unspecified)						no binding			no binding		no binding		binds	no binding		binding call [27]: binds; binding call [28]: binds; binding call [24]: no binding; binding call [15]: binds
CC(C)Cc1ccc(C(C)C(=O)O)cc1 (stereo unspecified)											no binding				no binding	
NCCc1c[nH]c2ccc(O)cc12							no binding			no binding		no binding		no binding	no binding	binding call [6]: no binding; binding call [30]: no binding; binding call [31]: no binding; binding call [20]: binds; binding call [27]: no binding; binding call [12]: no binding; binding call [32]: no binding; binding call [24]: no binding
COc1ccc2c3c1O[C@H]1C(=O)CC[C@@]4(O)[C@@H](C2)N(C)CC[C@]314									no binding	no binding		no binding	no binding	no binding		Kd [1]: 0.41 µM; Kd [8]: 0.45 µM; Kd [3]: 1.15 µM; Kd [4]: 1.19 µM; binding call [28]: no binding; Kd [5]: 3.06 µM
CCOC(=O)c1ccc(N)cc1			no binding	no binding	no binding							no binding			no binding	binding call [2]: no binding; binding call [25]: no binding
Cn1c(=O)c2c(ncn2C)n(C)c1=O	binds		no binding		binds			no binding			no binding					binding call [30]: no binding
NCCc1ccc(O)c(O)c1							no binding			no binding	no binding				no binding	binding call [6]: no binding; binding call [33]: binds; binding call [17]: binds; binding call [34]: binds; binding call [35]: no binding; binding call [20]: no binding; binding call [27]: binds; binding call [12]: no binding; binding call [32]: no binding; binding call [24]: binds
c1ccc([C@H]2CN3CCSC3=N2)cc1	no binding	no binding	no binding	no binding	no binding			no binding							no binding	binding call [32]: no binding; binding call [5]: no binding
CN[C@@H](C)Cc1ccccc1	no binding			no binding	no binding	no binding		no binding		no binding		no binding	no binding	no binding	no binding	Kd [30]: 5.67 µM; Kd [33]: 4.44 µM; Kd [17]: 3.6 µM; Kd [34]: 6.4 µM; binding call [2]: binds; Kd [35]: 3.3 µM; Kd [31]: 18 µM; binding call [19]: no binding; Kd [20]: 7.5 µM; binding call [9]: no binding; Kd [27]: 8.9 µM; binding call [28]: no binding; Kd [24]: 12.4 µM; binding call [25]: no binding
COC(=O)[C@@H]1C2CCC(C[C@@H]1OC(=O)c1ccccc1)N2C (stereo partly specified)		no binding	no binding	no binding		no binding							no binding	no binding		Kd [18]: 0.249 µM; binding call [31]: no binding; binding call [19]: no binding; binding call [20]: no binding; binding call [9]: no binding; Kd [21]: 0.102 µM; Kd [32]: 0.049 µM; binding call [28]: binds; binding call [15]: no binding; binding call [25]: no binding; Kd [29]: 0.353 µM
